Target: T1, APJ Receptor (Homo sapiens, UniProt P35414)
T1 sequence (P35414 1-380): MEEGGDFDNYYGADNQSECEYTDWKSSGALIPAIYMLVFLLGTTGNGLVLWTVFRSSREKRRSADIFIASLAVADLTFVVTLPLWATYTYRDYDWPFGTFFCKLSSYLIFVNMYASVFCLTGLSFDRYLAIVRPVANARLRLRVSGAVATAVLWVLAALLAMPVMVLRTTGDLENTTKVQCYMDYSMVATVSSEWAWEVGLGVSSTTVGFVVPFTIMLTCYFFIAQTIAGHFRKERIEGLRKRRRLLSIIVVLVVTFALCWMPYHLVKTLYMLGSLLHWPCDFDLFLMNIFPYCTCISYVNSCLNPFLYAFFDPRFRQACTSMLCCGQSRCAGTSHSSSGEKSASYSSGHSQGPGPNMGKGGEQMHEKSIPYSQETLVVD
Test: APJ cAMP assay (DiscoverX enzyme fragment complementation; inhibition of forskolin-stimulated cAMP)
Assay type: cell-based
Conditions: CHO-K1 cell line stably expressing the APJ Receptor; EC80 forskolin; 30 minutes at 37° C.; read-out: Potency Range (APJ cAMP EC50)
Description: Activation of APJ receptor is known to inhibit forskolin-stimulated cyclic AMP (cAMP) production in cells in a pertussis toxin-sensitive manner which indicates primary coupling to the GαI subunit of the G protein heterotrimeric complex. In addition to signaling through G protein and inhibition of cAMP, APJ receptor activation also results in β-arrestin recruitment, receptor internalization and activation of extracellular-regulated kinases (ERKs).
In order to optimize functional activity directed toward Gi coupling we utilized a CHO-K 1 cell line developed by DiscoverX stably expressing the APJ Receptor. Cells expressing APJR receptor were plated in a 384-well microtiter plates and incubated overnight at 37° C. with 5% CO2 to allow the cells to attach and grow. Media was then aspirated from the cells and replaced with 15 uL 2:1 Hanks Balanced Salt Solution (HBSS)/10 mM Hepes:cAMP XS+Ab reagent. Five microliters (5 uL) of previously generated compound sample stocks at 4× final concentration in assay buffer containing 4× EC80 forskolin were then added to the cells and allowed to incubate at 37° C. for 30 minutes.
After incubation the assay signal was generated using a technology termed enzyme fragment complementation (EFC). In EFC the enzyme B-galactosidase is split into two complementary portions (EA and ED). The fragment ED is fused to cAMP and in the assay format competes with endogenous cAMP for binding to a cAMP specific antibody. Activated B-Gal is formed when exogenous EA fragment binds to free ED-cAMP (not bound to cAMP specific antibody). Activated enzyme levels are detected through conversion of B-gal chemiluminescent substrate which generates a detectable luminescence signal and read on standard microtiter plate.
The methodology for detection of cAMP using EFC requires incubation with 20 uL of cAMP XS+ED/CL lysis cocktail for one hour followed by incubation with 20 uL cAMP XS+EA reagent for three hours at room temperature. Microplates were read following signal generation with a PerkinElmer Envision instrument utilizing chemiluminescent signal detection.
Compound activity was analyzed using CBIS data analysis suite (ChemInnovation, CA). Percentage activity was calculated using the following formula: % Activity=100%×(1−(mean RLU of test sample−mean RLU of Max control)/(mean RLU of vehicle control−mean RLU of Max control))

Structure (SMILES)	EC50
CCOc1cccc(-c2nc3ncc(NS(=O)(=O)CCC(C)(C)O)nc3n2-c2c(OC)cccc2OC)n1 [Example 60, N-(1-(2,6-dimethoxyphenyl)-2-(6-ethoxypyridin-2-yl)-1H-imidazo[4,5-b]pyrazin-6-yl)-3-hydroxy-3-methylbutane-1-sulfonamide]	1 to 100 nM
CCOc1cccc(-c2nc3ncc(N)nc3n2-c2c(OC)cccc2OC)n1 [Example 10, 1-(2,6-dimethoxyphenyl)-2-(6-ethoxypyridin-2-yl)-1H-imidazo[4,5-b]pyrazin-6-amine]	1 to 100 nM
CCOc1cccc(-c2nc3nnc(NS(=O)(=O)Cc4ccc(C)cn4)cc3n2-c2c(OC)cccc2OC)n1 [Example 124, N-(7-(2,6-Dimethoxyphenyl)-8-(6-ethoxypyridin-2-yl)-7H-imidazo[4,5-c]pyridazinyl)-1-(5-methylpyridin-2-yl)methanesulfonamide]	< 1 nM
CCOc1cccc(-c2nc3nc(NCc4ccc(OC)cc4)cnc3n2-c2c(OC)cccc2OC)n1 [Example 46, 1-(2,6-dimethoxyphenyl)-2-(6-ethoxypyridin-2-yl)-N-(4-methoxybenzyl)-1H-imidazo[4,5-b]pyrazin-5-amine]	< 1 nM
CCOc1cccc(-c2nc3ncc(NS(=O)(=O)C4COC4)nc3n2-c2c(OC)cccc2OC)n1 [Example 30, N-(1-(2,6-dimethoxyphenyl)-2-(6-ethoxypyridin-2-yl)-1H-imidazo[4,5-b]pyrazin-6-yl)oxetane-3-sulfonamide]	1 to 100 nM
CCOc1cccc(-c2nc3ncc(NS(=O)(=O)[C@H]4C[C@@H](O)C4)nc3n2-c2c(OC)cccc2OC)n1 [Example 33, cis-N-(1-(2,6-dimethoxyphenyl)-2-(6-ethoxypyridin-2-yl)-1H-imidazo[4,5-b]pyrazin-6-yl)-3-hydroxycyclobutane-1-sulfonamide]	1 to 100 nM
CCOc1cccc(-c2nc3ncc(NS(=O)(=O)Cc4ncccn4)nc3n2-c2c(OC)cccc2OC)n1 [Example 28, N-(1-(2,6-dimethoxyphenyl)-2-(6-ethoxypyridin-2-yl)-1H-imidazo[4,5-b]pyrazin-6-yl)-1-(pyrimidin-2-yl)methanesulfonamide]	< 1 nM
CCOc1cccc(-c2nc3nc(Cl)c(NS(=O)(=O)Cc4ncc(C)cn4)nc3n2-c2c(OC)cccc2OC)n1 [Example 142, N-(5-Chloro-1-(2,6-dimethoxyphenyl)-2-(6-ethoxypyridin-2-yl)-1H-imidazo[4,5-b]pyrazin-6-yl)-1-(5-methylpyrimidin-2-yl)methanesulfonamide]	< 1 nM
COc1cccc(OC)c1-n1c(-c2cccc(OC(F)(F)F)n2)nc2ncc(NS(C)(=O)=O)nc21 [Example 56, N-(1-(2,6-dimethoxyphenyl)-2-(6-(trifluoromethoxy)pyridin-2-yl)-1H-imidazo[4,5-b]pyrazin-6-yl)methanesulfonamide]	100 to 10000 nM
CCOc1cccc(-c2nc3nc(Cl)c(NS(=O)(=O)Cc4ccc(C)c(F)c4)nc3n2-c2c(OC)cccc2OC)n1 [Example 107, N-(5-Chloro-1-(2,6-dimethoxyphenyl)-2-(6-ethoxypyridin-2-yl)-1H-imidazo[4,5-b]pyrazin-6-yl)-1-(3-fluoro-4-methylphenyl)methanesulfonamide]	< 1 nM
COc1cccc(OC)c1-n1c(-c2cccc(OC3CC3)n2)nc2ncc(NS(C)(=O)=O)nc21 [Example 54, N-(2-(6-cyclopropoxypyridin-2-yl)-1-(2,6-dimethoxyphenyl)-1H-imidazo[4,5-b]pyrazin-6-yl)methanesulfonamide]	1 to 100 nM

Other lines, results leading:

EC50	Structure (SMILES)
< 1 nM	CCOc1cccc(-c2nc3ncc(NS(=O)(=O)C[C@@H]4CCN(C)C(=O)C4)nc3n2-c2c(OC)cccc2OC)n1 [Example 72, (R)—N-(1-(2,6-dimethoxyphenyl)-2-(6-ethoxypyridin-2-yl)-1H-imidazo[4,5-b]pyrazin-6-yl)-1-(1-methyl-2-oxopiperidin-4-yl)methanesulfonamide]
< 1 nM	CCOc1cccc(-c2nc3nc(NS(=O)(=O)CC4CC4)cnc3n2-c2c(OC)cccc2OC)n1 [Example 45, 1-cyclopropyl-N-(1-(2,6-dimethoxyphenyl)-2-(6-ethoxypyridin-2-yl)-1H-imidazo[4,5-b]pyrazin-5-yl)methanesulfonamide]
1 to 100 nM	CCOc1cccc(-c2nc3ccc(NS(C)(=O)=O)nc3n2-c2c(OC)cccc2OC)n1 [Example 63, N-(3-(2,6-dimethoxyphenyl)-2-(6-ethoxypyridin-2-yl)-3H-imidazo[4,5-b]pyridin-5-yl)methanesulfonamide]
1 to 100 nM	CCOc1cccc(-c2nc3nc(Cl)c(NS(=O)(=O)c4ccccn4)nc3n2-c2c(OC)cccc2OC)n1 [Example 102, N-(5-Chloro-1-(2,6-dimethoxyphenyl)-2-(6-ethoxypyridin-2-yl)-1H-imidazo[4,5-b]pyrazin-6-yl)pyridine-2-sulfonamide]
1 to 100 nM	COc1cccc(-c2nc3ncc(NS(=O)(=O)c4ncccn4)nc3n2-c2c(OC)cccc2OC)n1 [Example 53, N-(1-(2,6-dimethoxyphenyl)-2-(6-methoxypyridin-2-yl)-1H-imidazo[4,5-b]pyrazin-6-yl)pyrimidine-2-sulfonamide]
1 to 100 nM	CCOc1cccc(-c2nc3nc(Cl)c(NS(=O)(=O)Cc4ccc(C)cc4F)nc3n2-c2c(OC)cccc2OC)n1 [Example 100, N-(5-Chloro-1-(2,6-dimethoxyphenyl)-2-(6-ethoxypyridin-2-yl)-1H-imidazo[4,5-b]pyrazin-6-yl)-1-(2-fluoro-4-methylphenyl)methanesulfonamide]
< 1 nM	CCOc1cccc(-c2nc3nc(NS(=O)(=O)CCC4CC4)cnc3n2-c2c(OC)cccc2OC)n1 [Example 44]
1 to 100 nM	CCOc1cccc(-c2nc3nc(Cl)c(NS(=O)(=O)Cc4ccccn4)nc3n2-c2c(OC)cccc2OC)n1 [Example 95, N-(5-Chloro-1-(2,6-dimethoxyphenyl)-2-(6-ethoxypyridin-2-yl)-1H-imidazo[4,5-b]pyrazin-6-yl)-1-(pyridin-2-yl)methanesulfonamide]
< 1 nM	CCOc1cccc(-c2nc3nc(Cl)c(NS(=O)(=O)c4ccc(C)cn4)nc3n2-c2c(OC)cccc2OC)n1 [Example 101, N-(5-Chloro-1-(2,6-dimethoxyphenyl)-2-(6-ethoxypyridin-2-yl)-1H-imidazo[4,5-b]pyrazin-6-yl)-5-methylpyridine-2-sulfonamide]
1 to 100 nM	CCOc1cccc(-c2nc3ncc(NC)nc3n2-c2c(OC)cccc2OC)n1 [Example 9, 1-(2,6-dimethoxyphenyl)-2-(6-ethoxypyridin-2-yl)-N-methyl-1H-imidazo[4,5-b]pyrazin-6-amine]
1 to 100 nM	CCOc1cccc(-c2nc3nc(NC(=O)Cc4ccccc4)cnc3n2-c2c(OC)cccc2OC)n1 [Example 17, N-(1-(2,6-dimethoxyphenyl)-2-(6-ethoxypyridin-2-yl)-1H-imidazo[4,5-b]pyrazin-5-yl)-2-phenylacetamide]
< 1 nM	CCOc1cccc(-c2nc3nnc(NS(=O)(=O)Cc4ncccn4)cc3n2-c2c(OC)cccc2OC)n1 [Example 127, N-(5-(2,6-Dimethoxyphenyl)-6-(6-ethoxypyridin-2-yl)-5H-imidazo[4,5-c]pyridazin-3-yl)-1-(pyrimidin-2-yl)methanesulfonamide]
100 to 10000 nM	CCOc1cccc(-c2nc3ncc(C(=O)NCc4ccccc4)nc3n2-c2c(OC)cccc2OC)n1 [Example 8, N-Benzyl-1-(2,6-dimethoxyphenyl)-2-(6-ethoxypyridin-2-yl)-1H-imidazo[4,5-b]pyrazine-6-carboxamide]
